According to ChEMBL document CHEMBL5236610, “A Comprehensive Overview of Small-Molecule Androgen Receptor Degraders: Recent Progress and Future Perspectives” (J Med Chem, 2022):

Columns and labels:
LNCaP [1] = assay: Antitumor activity against human LNCap cells xenografted in NSG mouse assessed as tumor growth inhibition at 100 mg/kg, sc relative to control; format: functional; details: read-out: TGI
Androgen receptor [2] = molecular target: T1, Androgen receptor (Homo sapiens, UniProt P10275); assay: Inhibition of Androgen receptor (unknown origin)
T1 sequence (P10275 whole entry): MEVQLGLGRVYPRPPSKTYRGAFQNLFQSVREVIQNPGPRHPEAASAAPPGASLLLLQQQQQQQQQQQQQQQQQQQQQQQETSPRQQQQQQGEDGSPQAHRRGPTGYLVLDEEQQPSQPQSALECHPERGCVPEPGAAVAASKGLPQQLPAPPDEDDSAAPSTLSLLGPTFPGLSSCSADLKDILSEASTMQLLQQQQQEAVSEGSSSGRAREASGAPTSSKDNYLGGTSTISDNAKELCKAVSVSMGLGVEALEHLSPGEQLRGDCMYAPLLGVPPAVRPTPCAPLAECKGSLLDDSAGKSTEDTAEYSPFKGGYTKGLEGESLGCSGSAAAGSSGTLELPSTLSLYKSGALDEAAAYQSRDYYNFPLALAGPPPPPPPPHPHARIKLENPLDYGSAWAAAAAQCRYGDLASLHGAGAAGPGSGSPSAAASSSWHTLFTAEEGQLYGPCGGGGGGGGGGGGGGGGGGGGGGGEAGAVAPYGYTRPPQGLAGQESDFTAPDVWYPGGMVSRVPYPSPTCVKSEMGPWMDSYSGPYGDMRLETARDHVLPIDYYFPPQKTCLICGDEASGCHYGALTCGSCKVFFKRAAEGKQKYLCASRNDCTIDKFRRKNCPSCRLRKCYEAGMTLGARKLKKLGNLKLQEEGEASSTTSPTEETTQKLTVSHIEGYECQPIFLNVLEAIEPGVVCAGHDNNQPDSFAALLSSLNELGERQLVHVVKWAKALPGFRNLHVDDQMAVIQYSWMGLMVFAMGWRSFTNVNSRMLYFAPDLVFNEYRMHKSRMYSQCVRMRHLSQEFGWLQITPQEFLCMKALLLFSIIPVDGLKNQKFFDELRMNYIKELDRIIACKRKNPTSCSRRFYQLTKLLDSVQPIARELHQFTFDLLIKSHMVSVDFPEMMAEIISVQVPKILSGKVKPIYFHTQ

Androgen receptor [3] = molecular target: T1, Androgen receptor; assay: Induction of degradation of AR LBD in human LNCaP cells; format: cell-based
Androgen receptor [4] = molecular target: T1, Androgen receptor; assay: Inhibition of AR LBD in human LNCaP cells; format: cell-based
LNCaP [5] = assay: Antiproliferative activity against human LNCAP cells assessed as reduction in cell viability; format: functional, cell-based
CWR22R [6] = assay: Antiproliferative activity against human 22Rv1 cells assessed as reduction in cell viability; format: functional, cell-based
LNCaP [7] = assay: Antitumor activity against human LNCaP cells xenografted in nude mouse assessed as decrease in tumor weight at 40 mg/kg via oral gavage for six days weekly for 70 days relative to control; format: functional; parameters: scale not given: the % may be the effect or the level left; details: time 70 day
LNCaP C4-2B [8] = assay: Antiproliferative activity against human C4-2B cells; format: functional, cell-based
CWR22R [9] = assay: Antitumor activity against human 22Rv1 cells xenografted in BALB/c nude mouse assessed as reduction in tumor volume at 10 mg/kg administered daily by vernier caliper method relative control; format: functional; parameters: scale not given: the % may be the effect or the level left
PC-3 [10] = assay: Antitumor activity against human PC-3 cells xenografted in mouse assessed as reduction in tumor at 50 mg/kg in presence of bicalutamide relative to control; format: functional; parameters: scale not given: the % may be the effect or the level left
in vitro = details: mouse, liver microsomes
Description: Metabolic stability in mouse liver microsomes assessed as half life by LC-MS/MS analysis

[11] = molecular target: T2, Steroid 17-alpha-hydroxylase/17,20 lyase (Homo sapiens, UniProt P05093); assay: Inhibition of CYP17AI in human LNCaP cells; format: ADME, cell-based
T2 sequence (P05093 whole entry): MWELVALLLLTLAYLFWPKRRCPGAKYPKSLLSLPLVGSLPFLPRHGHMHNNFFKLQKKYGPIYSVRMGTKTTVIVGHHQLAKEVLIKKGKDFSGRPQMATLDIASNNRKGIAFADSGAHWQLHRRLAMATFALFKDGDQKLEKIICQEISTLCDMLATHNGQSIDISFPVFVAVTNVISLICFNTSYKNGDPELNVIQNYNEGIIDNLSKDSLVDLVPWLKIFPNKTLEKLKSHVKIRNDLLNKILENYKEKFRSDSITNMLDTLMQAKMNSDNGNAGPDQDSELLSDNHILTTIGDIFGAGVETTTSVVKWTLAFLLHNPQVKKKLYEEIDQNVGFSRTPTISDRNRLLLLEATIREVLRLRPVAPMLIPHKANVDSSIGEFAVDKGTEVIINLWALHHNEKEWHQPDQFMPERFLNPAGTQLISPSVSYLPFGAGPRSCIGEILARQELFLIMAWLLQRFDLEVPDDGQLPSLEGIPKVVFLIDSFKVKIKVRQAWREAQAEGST

[12] = molecular target: T2, Steroid 17-alpha-hydroxylase/17,20 lyase; assay: Inhibition of CYP17AI in human 22Rv1 cells; format: ADME, cell-based
CWR22R [13] = assay: Antitumor activity against human 22rv1 cells xenografted in mouse assessed as suppression of tumor growth at 100 mg/kg, po administered daily for 25 days relative to control; format: functional; details: time 25 day
[14] = molecular target: Protein cereblon/Androgen receptor (Homo sapiens, UniProt P10275+Q96SW2); assay: Protac activity at CRBN/Androgen receptor in human LNCaP cells assessed as Androgen receptor degradation incubated for 24 hrs; format: cell-based
[15] = molecular target: T3, von Hippel-Lindau disease tumor suppressor/Androgen receptor (Homo sapiens, UniProt P10275+P40337); assay: PROTAC activity at VHL/AR-V7 in human 22Rv1 cells assessed as induction of AR-V7 degradation incubated for 24 hrs by immunoblot assay; format: cell-based
Target sequence in this assay (P40337 whole entry, looked up, change not shown, one chain of several): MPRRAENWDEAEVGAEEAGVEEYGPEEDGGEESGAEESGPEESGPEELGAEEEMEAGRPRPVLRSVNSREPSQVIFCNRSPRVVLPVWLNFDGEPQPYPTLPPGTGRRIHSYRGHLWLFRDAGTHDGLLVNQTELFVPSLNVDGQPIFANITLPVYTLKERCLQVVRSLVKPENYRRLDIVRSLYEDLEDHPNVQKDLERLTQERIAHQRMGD

[16] = molecular target: T3, von Hippel-Lindau disease tumor suppressor/Androgen receptor; assay: PROTAC activity at VHL/full length AR in human 22Rv1 cells assessed as induction of AR degradation incubated for 24 hrs by immunoblot assay; format: cell-based
Target sequence in this assay (P40337 whole entry, one chain of several): as the sequence (P40337 whole entry, looked up, change not shown, one chain of several) above

[17] = Downregulation of AR level in human LNCaP cells at 10 uM by Western blot analysis relative to control; format: functional
[18] = Downregulation of AR level in human CWR22Rv cells at 10 uM by Western blot analysis relative to control; format: functional
[19] = Downregulation of AR-Vs level in human LNCaP cells at 10 uM by Western blot analysis relative to control; format: functional
[20] = Downregulation of AR-Vs level in human CWR22Rv cells at 10 uM by Western blot analysis relative to control; format: functional
[21] = Antitumor activity in human CWR22rv cells xenografted NOD.CB17-PrkdcSCID/J mouse model assessed as inhibition of tumor growth at 10 mg/kg, ip relative to control; format: functional; parameters: scale not given: the % may be the effect or the level left
CWR22R [22] = assay: Antiproliferative activity against human 22Rv1 cells incubated for 24 hrs by CCK-8 assay; format: functional, cell-based; details: 22Rv1, 24 h
LNCaP C4-2 = assay: Antiproliferative activity against human C4-2 cells incubated for 24 hrs by CCK-8 assay; format: functional, cell-based; details: LNCaP C4-2, 24 h
DU-145 = assay: Antiproliferative activity against human DU-145 cells incubated for 24 hrs by CCK-8 assay; format: functional, cell-based; details: DU-145, 24 h
PC-3 [23] = assay: Antiproliferative activity against human PC-3 cells incubated for 24 hrs by CCK-8 assay; format: functional, cell-based; details: PC-3, 24 h
LNCaP [24] = assay: Antiproliferative activity against human LNCap cells incubated for 168 hrs by […] assay; format: functional, cell-based
VCaP = assay: Antiproliferative activity against human VCaP cells incubated for 168 hrs by […] assay; format: functional, cell-based
LNCaP [25] = assay: Antiproliferative activity against human LNCap cells; format: functional, cell-based
CWR22R [26] = assay: Antiproliferative activity against human 22Rv1 cells; format: functional, cell-based
LNCaP C4-2B [27] = assay: Antiproliferative activity against human LNCaP C4-2B cells; format: functional, cell-based
PC-3 [28] = assay: Antiproliferative activity against human PC-3 cells; format: functional, cell-based

Sequence of Protein cereblon/Androgen receptor (Q96SW2 whole entry, one chain of several): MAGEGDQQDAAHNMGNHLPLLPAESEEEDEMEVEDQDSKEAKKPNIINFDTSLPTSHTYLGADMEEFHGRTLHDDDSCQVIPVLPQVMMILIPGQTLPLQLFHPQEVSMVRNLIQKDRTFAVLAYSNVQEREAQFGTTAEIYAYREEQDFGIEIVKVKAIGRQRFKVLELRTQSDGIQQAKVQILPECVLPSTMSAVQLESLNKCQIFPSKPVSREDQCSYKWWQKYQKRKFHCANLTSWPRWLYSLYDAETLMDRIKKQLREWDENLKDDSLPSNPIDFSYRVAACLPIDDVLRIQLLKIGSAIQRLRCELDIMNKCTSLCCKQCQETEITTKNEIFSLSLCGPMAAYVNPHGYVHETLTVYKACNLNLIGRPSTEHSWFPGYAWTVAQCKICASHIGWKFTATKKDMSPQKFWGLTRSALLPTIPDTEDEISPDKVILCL

C[C@](O)(Cn1ccc2cc(F)ccc21)C(=O)Nc1ccc(C#N)c(C(F)(F)F)c1
inhibition in vivo at 100 mg/kg (LNCaP [1]): 65%

Clc1ccc(-c2cnc3n2CCC3)cc1
IC50 (Androgen receptor [2]): 4.3 µM

CC1(C)C(=O)N(c2ccc(C#N)c(C(F)(F)F)c2)C(=S)N1CCCC(=O)NCCOCCOC(=O)CC12CC3CC(CC(C3)C1)C2
EC50 (Androgen receptor [3]): 1 µM
IC50 (Androgen receptor [4]): 0.156 µM

CC1(C)CC(NC(=O)[C@H](Cc2ccc(OCc3c(Cl)cccc3Cl)cc2)NC(=O)/C(=C\c2ccccc2)c2ccccc2)CC(C)(C)N1
IC50 (LNCaP [5]): 3 µM
IC50 (CWR22R [6]): 2.6 µM

CC(C)=CCC[C@](C)(O)[C@H]1CC[C@]2(C)[C@@H]1[C@H](O)C[C@@H]1[C@@]3(C)CC[C@H](O)C(C)(C)[C@@H]3CC[C@]12C
Activity (LNCaP [7]): 32.6%

COc1ccc(C(=O)n2c(C)cc3cc(Cl)ccc32)cc1
IC50 (LNCaP C4-2B [8]): 1.09 µM

COc1ccc(-n2nc3ccc(NC(=O)CO[N+](=O)[O-])cc3n2)cc1
Activity (CWR22R [9]): 82%

C[C@H]1[C@H](OC(=O)CCC(=O)O)O[C@@H]2O[C@@]3(C)CC[C@H]4[C@H](C)CC[C@@H]1[C@@]24OO3 [ARTESUNATE]
Activity (PC-3 [10]): >95%

CN(C[C@](C)(O)C(=O)Nc1ccc(C#N)c(C(F)(F)F)c1)c1ccc(C#N)c(-c2ccccc2)c1
half-life (in vitro): 1 min

C[C@]12CC[C@H](O)CC1=CC[C@@H]1[C@@H]2CC[C@]2(C)C(n3cnc4ccccc43)=CC[C@@H]12 [GALETERONE]
IC50 [11]: 3.55 µM
IC50 [12]: 0.0122 µM

CC(C)c1cc2c(c(O)c1O)[C@@]1(C(=O)O)CCCC(C)(C)[C@@H]1CC2 [CARNOSIC ACID]
Activity (CWR22R [13]): 53%

CC(O)(COc1ccc(OCCOCCOc2cccc3c2C(=O)N(C2CCC(=O)NC2=O)C3=O)cc1)C(=O)Nc1ccc(C#N)c(I)c1 (configuration not stated)
EC50 [14]: 5.21 µM

Cc1ncsc1-c1ccc([C@H](C)NC(=O)[C@@H]2C[C@@H](O)CN2C(=O)[C@@H](NC(=O)CCCCNC(=O)COc2c(-c3csc(N4CCOCC4)n3)ccc(F)c2F)C(C)(C)C)cc1
EC50 [15]: 0.37 µM
EC50 [16]: 2 µM

CCOc1ccc2c(c1OC(C)C)CCN(c1ccc(C(=O)Nc3cccc(C)n3)cn1)C2
Activity [17]: >90%
Activity [18]: >90%
Activity [19]: >90%
Activity [20]: >90%
Activity [21]: 65%

COc1ccc(-c2cc(=O)c3c(OC)c(OC)c(OC)c(OC)c3o2)cc1OC [NOBILETIN]
IC50 (CWR22R [22]): 36.5 µM
IC50 (LNCaP C4-2): 30.3 µM
IC50 (DU-145): 144 µM
IC50 (PC-3 [23]): 123 µM

CC1(C)C(=O)N(c2ccc(C#N)c(C(F)(F)F)c2)C(=S)N1CCCCOc1cccc2c1C(=O)N(C1CCC(=O)NC1=O)C2=O (configuration not stated)
IC50 (LNCaP [24]): 3.07 µM
IC50 (VCaP): 0.127 µM

COc1ccc2cc3[n+](cc2c1OC)CCc1cc2c(cc1-3)OCO2 [BERBERINE]
IC50 (LNCaP [25]): 3.4 µM
IC50 (CWR22R [26]): 12.7 µM
IC50 (LNCaP C4-2B [27]): 11.2 µM
IC50 (PC-3 [28]): 21.5 µM
